This note sets out measurements from ChEMBL document CHEMBL4673365, “Design, synthesis and biological evaluation of novel 4-(pyrrolo[2,3-d]pyrimidine-4-yloxy)benzamide derivatives as potential antitumor agents” (Bioorg Med Chem Lett, 2021).

Test [1] concerns A549. Nature of the test: Cytotoxicity against human A549 cells after 72 hrs by MTT assay. Type of test: functional, cell-based. (In general: Formazan colour is commonly taken as a measure of viable cells.)
For a further test, the system named is HeLa. The test is described as follows: Cytotoxicity against human HeLa cells after 72 hrs by MTT assay. In kind it is functional, cell-based.
For another test, the system named is MCF7. Nature of the test: Cytotoxicity against human MCF7 cells after 72 hrs by MTT assay. In kind it is functional, cell-based.
Test [2] relates to A549. Nature of the test: Cytotoxicity against human A549 cells assessed as inhibition rate at 33.33 uM after 72 hrs by MTT assay relative to control. In kind it is functional.
Test [3] relates to A549. The test is described as follows: Cytotoxicity against human A549 cells assessed as inhibition rate at 100 uM after 72 hrs by MTT assay relative to control. Type of test: functional.
In test [4] the test system is A549. The test is described as follows: Cytotoxicity against human A549 cells assessed as reduction in cell survival after 72 hrs by MTT assay. Particulars: dose 0.137-100 µM; call rule not given here. Type of test: functional, cell-based.
Test [5] relates to A549. Nature of the test: Induction of cell cycle arrest in human A549 cells assessed as accumulation at S phase at 5 uM incubated for 24 hrs by propidium iodide staining based flow cytometry (reference value: 27.97 %). Type of test: functional. Background: A flow cytometer gives signals particle by particle.
Test [6] deals with A549. The test is described as follows: Cytotoxicity against human A549 cells assessed as inhibition rate at 0.411 uM after 72 hrs by MTT assay relative to control. In kind it is functional.
Test [7] relates to A549. Nature of the test: Induction of cell cycle arrest in human A549 cells assessed as accumulation at G0/G1 phase at 5 uM incubated for 24 hrs by propidium iodide staining based flow cytometry (reference value: 64.47 %). In kind it is functional.
Test [8] deals with Hepatocyte growth factor receptor (Homo sapiens, UniProt P08581). The test is described as follows: Inhibition of c-Met (unknown origin) by mobility shift assay.
Sequence of Hepatocyte growth factor receptor (P08581 whole entry): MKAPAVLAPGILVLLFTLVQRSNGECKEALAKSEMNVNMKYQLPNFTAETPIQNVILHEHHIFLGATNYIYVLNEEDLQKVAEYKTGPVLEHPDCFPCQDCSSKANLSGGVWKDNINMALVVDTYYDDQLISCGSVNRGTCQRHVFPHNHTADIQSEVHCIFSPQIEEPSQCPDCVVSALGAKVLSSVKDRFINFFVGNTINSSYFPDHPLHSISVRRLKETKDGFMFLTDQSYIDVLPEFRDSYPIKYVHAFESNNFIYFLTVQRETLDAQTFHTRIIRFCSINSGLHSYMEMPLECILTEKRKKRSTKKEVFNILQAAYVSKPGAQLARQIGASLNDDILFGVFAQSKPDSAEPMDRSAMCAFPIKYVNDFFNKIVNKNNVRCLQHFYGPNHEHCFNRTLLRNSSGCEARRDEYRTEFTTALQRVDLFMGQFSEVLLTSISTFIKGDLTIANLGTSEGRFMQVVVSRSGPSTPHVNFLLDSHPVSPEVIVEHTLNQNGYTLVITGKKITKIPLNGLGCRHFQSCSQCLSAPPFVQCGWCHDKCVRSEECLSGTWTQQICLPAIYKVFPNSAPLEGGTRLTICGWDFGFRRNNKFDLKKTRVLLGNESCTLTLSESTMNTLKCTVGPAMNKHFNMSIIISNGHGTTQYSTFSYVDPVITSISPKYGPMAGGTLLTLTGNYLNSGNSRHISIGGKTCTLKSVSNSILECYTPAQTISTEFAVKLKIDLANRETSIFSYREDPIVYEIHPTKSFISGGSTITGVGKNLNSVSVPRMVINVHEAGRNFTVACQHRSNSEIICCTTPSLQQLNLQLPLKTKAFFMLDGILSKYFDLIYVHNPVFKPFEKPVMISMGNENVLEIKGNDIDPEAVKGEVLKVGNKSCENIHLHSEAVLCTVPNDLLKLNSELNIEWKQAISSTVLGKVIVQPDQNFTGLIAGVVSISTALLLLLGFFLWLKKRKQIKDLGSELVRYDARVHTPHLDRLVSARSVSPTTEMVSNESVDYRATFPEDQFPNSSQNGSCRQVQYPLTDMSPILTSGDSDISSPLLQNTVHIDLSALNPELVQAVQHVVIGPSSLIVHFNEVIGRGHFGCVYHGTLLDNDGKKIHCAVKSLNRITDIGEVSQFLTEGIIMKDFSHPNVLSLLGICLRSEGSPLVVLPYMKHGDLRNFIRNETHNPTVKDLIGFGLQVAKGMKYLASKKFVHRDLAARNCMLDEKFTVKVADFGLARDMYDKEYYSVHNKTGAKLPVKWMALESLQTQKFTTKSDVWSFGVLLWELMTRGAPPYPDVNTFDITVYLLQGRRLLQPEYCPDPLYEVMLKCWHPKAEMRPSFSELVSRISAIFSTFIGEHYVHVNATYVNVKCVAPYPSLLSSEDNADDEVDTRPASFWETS
For test [9], the system named is A549. Nature of the test: Cytotoxicity against human A549 cells assessed as inhibition rate at 3.704 uM after 72 hrs by MTT assay relative to control. Type of test: functional.
Test [10] relates to A549. Nature of the test: Induction of cell cycle arrest in human A549 cells assessed as accumulation at G2 phase at 5 uM incubated for 24 hrs by propidium iodide staining based flow cytometry (reference value: 7.56 %). In kind it is functional.
For test [11], the system named is A549. The test is described as follows: Cytotoxicity against human A549 cells assessed as inhibition rate at 11.11 uM after 72 hrs by MTT assay relative to control. In kind it is functional.
The test system of test [12] is A549. Nature of the test: Cytotoxicity against human A549 cells assessed as inhibition rate at 1.234 uM after 72 hrs by MTT assay relative to control. Type of test: functional.
For test [13], the system named is A549. The test is described as follows: Cytotoxicity against human A549 cells assessed as inhibition rate at 0.137 uM after 72 hrs by MTT assay relative to control. In kind it is functional.
[14] abbreviates: Homo sapiens, A549, 72 h, read-out: IC50.
The mark [15] stands for this setting: Homo sapiens, MCF7, 72 h, read-out: IC50.

Consider `Cn1ccc2c(Oc3ccc(NC(=O)c4cc5cccnc5n(-c5ccc(Cl)cc5)c4=O)cc3)ncnc21`, for which the IC50 in the test on A549 [1] (setting [14]) came to 75.5 µM; with HeLa, 49.9 µM; with MCF7 (setting [15]), 95 µM.

Regarding `Cn1ccc2c(Oc3ccc(NC(=O)c4cc5cccnc5n(-c5ccc(C(F)(F)F)cc5Cl)c4=O)cc3F)ncnc21`, the IC50 result in the test on A549 [1] (a549) is “Not Active”; with HeLa, 170 µM; in the test with MCF7 (mcf7), “Not Active”.

For the compound `O=C(Nc1ccc(Oc2ncnc3[nH]ccc23)c(F)c1)c1cc2cccnc2n(-c2ccc(F)cc2)c1=O`, the IC50 with A549 [1] (setting [14]) amounted to 5.29 µM; in the test with HeLa it was 3.72 µM; with MCF7 (setting [15]) it was 9.23 µM; in test [8] it was 0.612 µM. The inhibition at 33.33 µM with A549 [2] was determined as 80.6%. Also, the inhibition at 100 µM in the test with A549 [3] came to 90.5%. Besides, the Activity result in the test on A549 [4] was “Dose-dependent effect”; in the test with A549 [5], 21.11%; in the test on A549 [7] it was 73.46%; with A549 [10], 5.43%. In addition, the inhibition at 0.411 µM in the test on A549 [6] is 18.1%. Further, the inhibition at 3.704 µM in the test on A549 [9] was 42.3%. In addition, the inhibition at 11.11 µM with A549 [11] came out at 54.5%. The inhibition at 1.234 µM with A549 [12] came to 23.4%. The inhibition at 0.137 µM in the test on A549 [13] turned out to be 12.7%.

With `Cn1ccc2c(Oc3ccc(NC(=O)c4cc5cccnc5n(-c5ccc(C(F)(F)F)c(Cl)c5)c4=O)cc3F)ncnc21`, the IC50 in the test with A549 [1] (setting [14]) was 320 µM; in the test on HeLa it was 156 µM; with MCF7 (mcf7), “Not Active”.

Consider `O=C(Nc1ccc(Oc2ncnc3[nH]ccc23)c(F)c1)c1cc2cccnc2n(-c2ccc(Br)cc2)c1=O`, for which the IC50 with A549 [1] (setting [14]) is 27.3 µM; in the test with HeLa it was 19.9 µM; in the test with MCF7 (setting [15]), 27 µM.

On to `O=C(Nc1ccc(Oc2ncnc3[nH]ccc23)c(F)c1)c1cc2cccnc2n(-c2ccc(Cl)cc2)c1=O`, for which the IC50 in the test with A549 [1] (setting [14]) was found to be 35.5 µM; in the test with HeLa, 23.9 µM; in the test with MCF7 (setting [15]), 45 µM; in test [8], 1.18 µM.

`COc1ccc(-n2c(=O)c(C(=O)Nc3ccc(Oc4ncnc5c4ccn5C)cc3)cc3cccnc32)cc1`: the IC50 with A549 [1] (setting [14]) stood at 83.2 µM; in the test with HeLa, 65.8 µM; with MCF7 (setting [15]), 105 µM.

On to `O=C(Nc1ccc(Oc2ncnc3[nH]ccc23)c(F)c1)c1cc2cccnc2n(-c2ccccc2)c1=O`, for which the figures for the IC50 with A549 [1] (setting [14]), with HeLa and in the test on MCF7 (setting [15]) were 45.5 µM, 36.9 µM and 45 µM, respectively.

`Cn1ccc2c(Oc3ccc(NC(=O)c4cc5cccnc5n(-c5ccc(Br)cc5)c4=O)cc3F)ncnc21`: the values for the IC50 in the test on A549 [1] (setting [14]), in the test on HeLa and in the test with MCF7 (setting [15]) were 42.2 µM, 33.8 µM and 59.4 µM, respectively.

On to `CN1CCN(C2CCN(C(=O)Nc3cc(Oc4ccc(NC(=O)C5(C(=O)Nc6ccc(F)cc6)CC5)c(F)c4)ccn3)CC2)CC1` [GOLVATINIB], for which the IC50 with A549 [1] (setting [14]) stood at 7.7 µM; in the test with HeLa it was 4.23 µM; with MCF7 (setting [15]), 15.4 µM. In addition, the inhibition at 33.33 µM in the test on A549 [2] stood at 76.5%. In addition, the inhibition at 100 µM in the test on A549 [3] was 85.1%. Moreover, the Activity in the test on A549 [5] is given as 19.82%; with A549 [7], 73.65%; with A549 [10], 6.53%. Moreover, the inhibition at 0.411 µM with A549 [6] amounted to 17.2%. Also, in the test on A549 [9], the inhibition at 3.704 µM was 35.3%. In the test on A549 [11], the inhibition at 11.11 µM is 47.5%. For the same compound, the inhibition at 1.234 µM with A549 [12] is 21.4%. Besides, in the test on A549 [13], the inhibition at 0.137 µM came to 13.7%.

Regarding `O=C(Nc1ccc(Oc2ncnc3[nH]ccc23)c(F)c1)c1cc2cccnc2n(-c2ccc(Br)cc2F)c1=O`, the IC50 in the test with A549 [1] (setting [14]) is 218 µM; in the test with HeLa it was 87.8 µM; in the test on MCF7 (setting [15]), 102 µM.

In the case of `Cn1ccc2c(Oc3ccc(NC(=O)c4cc5cccnc5n(-c5ccc(C(F)(F)F)c(Cl)c5)c4=O)cc3)ncnc21`, the IC50 result in the test on A549 [1] (a549) was “Not Active”; in the test with HeLa it was 289 µM; with MCF7 (mcf7), “Not Active”.

On to `Cn1ccc2c(Oc3ccc(NC(=O)c4cc5cccnc5n(-c5ccccc5)c4=O)cc3)ncnc21`, for which the IC50 in the test on A549 [1] (setting [14]) was 66.2 µM; in the test with HeLa, 59.8 µM; in the test on MCF7 (setting [15]), 88.4 µM.

In the case of `Cn1ccc2c(Oc3ccc(NC(=O)c4cc5cccnc5n(-c5ccc(Br)cc5)c4=O)cc3)ncnc21`, the values for the IC50 in the test on A549 [1] (setting [14]), in the test with HeLa and in the test on MCF7 (setting [15]) were 52.2 µM, 43.8 µM and 79.4 µM, respectively.

With `Cn1ccc2c(Oc3ccc(NC(=O)c4cc5cccnc5n(-c5ccc(Cl)cc5)c4=O)cc3F)ncnc21`, the IC50 turned out to be 55.5 µM in the test on A549 [1] (setting [14]), 43.9 µM in the test on HeLa, 75 µM with MCF7 (setting [15]) and 3.79 µM in [8].

Take `Cn1ccc2c(Oc3ccc(NC(=O)c4cc5cccnc5n(-c5ccc(F)cc5)c4=O)cc3F)ncnc21`: the IC50 in the test on A549 [1] (setting [14]) came out at 7.32 µM; in the test with HeLa, 4.25 µM; in the test on MCF7 (setting [15]), 11.9 µM; in [8] it was 0.701 µM.

Take `Cn1ccc2c(Oc3ccc(NC(=O)c4cc5cccnc5n(-c5ccccc5)c4=O)cc3F)ncnc21`: the IC50 in the test with A549 [1] (setting [14]) was found to be 63.2 µM; in the test with HeLa, 51.8 µM; with MCF7 (setting [15]) it was 73.4 µM.

Take `Cn1ccc2c(Oc3ccc(NC(=O)c4cc5cccnc5n(-c5ccc(C(F)(F)F)cc5Cl)c4=O)cc3)ncnc21`: the IC50 is 364 µM in the test on A549 [1] (setting [14]), 174 µM in the test with HeLa and “Not Active” in the test on MCF7 (mcf7).

Take `O=C(Nc1ccc(Oc2ncnc3[nH]ccc23)c(F)c1)c1cc2cccnc2n(-c2ccc(C(F)(F)F)cc2Cl)c1=O`: the IC50 in the test with A549 [1] (setting [14]) was found to be 283 µM; in the test on HeLa, 96.8 µM; with MCF7 (setting [15]) it was 214 µM.

Usually IC50 stands for the point on the concentration scale where inhibition reaches its midpoint. What is called inhibition is the share of the control response that was lost under treatment.
